Test results reported in ChEMBL document CHEMBL5291721, “A preclinical secondary pharmacology resource illuminates target-adverse drug reaction associations of marketed drugs” (Nat Commun, 2023).

What was measured:
[1] = target: T1, Adenosine receptor A1 (Homo sapiens, UniProt P30542)
T1 sequence (P30542 whole entry): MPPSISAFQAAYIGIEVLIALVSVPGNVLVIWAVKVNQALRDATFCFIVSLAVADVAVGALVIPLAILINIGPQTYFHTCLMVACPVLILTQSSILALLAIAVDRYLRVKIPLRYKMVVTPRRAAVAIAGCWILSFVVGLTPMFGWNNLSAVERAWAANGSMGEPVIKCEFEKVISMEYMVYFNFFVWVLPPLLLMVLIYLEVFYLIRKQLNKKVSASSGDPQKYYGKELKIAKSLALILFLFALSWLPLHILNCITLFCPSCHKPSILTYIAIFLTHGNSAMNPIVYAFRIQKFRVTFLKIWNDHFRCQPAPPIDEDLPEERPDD

[2] = target: T2, Adenosine receptor A3 (Homo sapiens, UniProt P0DMS8)
T2 sequence (P0DMS8 whole entry): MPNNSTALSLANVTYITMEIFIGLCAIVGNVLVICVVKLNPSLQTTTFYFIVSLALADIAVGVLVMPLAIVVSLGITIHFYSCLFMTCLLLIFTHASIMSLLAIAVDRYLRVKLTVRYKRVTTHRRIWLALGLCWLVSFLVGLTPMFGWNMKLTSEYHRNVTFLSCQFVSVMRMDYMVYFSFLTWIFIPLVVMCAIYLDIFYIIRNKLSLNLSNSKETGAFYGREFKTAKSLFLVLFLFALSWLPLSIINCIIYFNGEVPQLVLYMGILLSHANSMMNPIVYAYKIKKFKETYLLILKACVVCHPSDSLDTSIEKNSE

[3] = target: T3, Alpha-2A adrenergic receptor (Homo sapiens, UniProt P08913); assay type: functional, cell-based
T3 sequence (P08913 whole entry): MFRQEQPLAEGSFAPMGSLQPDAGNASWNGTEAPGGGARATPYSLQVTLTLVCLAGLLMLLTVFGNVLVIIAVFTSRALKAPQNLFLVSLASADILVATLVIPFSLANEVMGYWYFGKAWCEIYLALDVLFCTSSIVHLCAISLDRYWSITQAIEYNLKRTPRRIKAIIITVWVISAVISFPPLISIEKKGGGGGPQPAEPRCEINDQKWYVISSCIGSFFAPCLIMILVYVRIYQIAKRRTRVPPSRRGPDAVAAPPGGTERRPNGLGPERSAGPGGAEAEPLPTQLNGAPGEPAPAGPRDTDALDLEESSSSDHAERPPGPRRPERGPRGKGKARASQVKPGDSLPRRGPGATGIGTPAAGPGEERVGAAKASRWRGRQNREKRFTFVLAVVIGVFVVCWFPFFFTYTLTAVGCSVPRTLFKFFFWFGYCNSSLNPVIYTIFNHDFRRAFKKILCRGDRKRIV

[4] = target: Vasopressin V2 receptor (Homo sapiens, UniProt P30518)
[5] = target: T4, Cholecystokinin receptor type A (Homo sapiens, UniProt P32238)
T4 sequence (P32238 whole entry): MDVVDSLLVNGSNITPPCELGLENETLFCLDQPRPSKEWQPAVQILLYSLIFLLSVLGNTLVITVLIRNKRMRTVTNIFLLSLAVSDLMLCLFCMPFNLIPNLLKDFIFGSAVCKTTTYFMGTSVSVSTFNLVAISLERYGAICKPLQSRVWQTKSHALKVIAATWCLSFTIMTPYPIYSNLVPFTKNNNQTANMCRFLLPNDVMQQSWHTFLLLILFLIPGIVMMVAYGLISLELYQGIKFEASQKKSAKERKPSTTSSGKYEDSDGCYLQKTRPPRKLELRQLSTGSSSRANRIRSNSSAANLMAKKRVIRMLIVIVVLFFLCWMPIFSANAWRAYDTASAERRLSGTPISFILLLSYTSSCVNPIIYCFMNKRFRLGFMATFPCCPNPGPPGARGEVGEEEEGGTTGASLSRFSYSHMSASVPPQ

[6] = target: Growth hormone secretagogue receptor type 1 (Homo sapiens, UniProt Q92847)
[7] = target: Histamine H2 receptor (Homo sapiens, UniProt P25021); assay type: functional, cell-based
[8] = target: T5, Thromboxane A2 receptor (Homo sapiens, UniProt P21731)
T5 sequence (P21731 whole entry): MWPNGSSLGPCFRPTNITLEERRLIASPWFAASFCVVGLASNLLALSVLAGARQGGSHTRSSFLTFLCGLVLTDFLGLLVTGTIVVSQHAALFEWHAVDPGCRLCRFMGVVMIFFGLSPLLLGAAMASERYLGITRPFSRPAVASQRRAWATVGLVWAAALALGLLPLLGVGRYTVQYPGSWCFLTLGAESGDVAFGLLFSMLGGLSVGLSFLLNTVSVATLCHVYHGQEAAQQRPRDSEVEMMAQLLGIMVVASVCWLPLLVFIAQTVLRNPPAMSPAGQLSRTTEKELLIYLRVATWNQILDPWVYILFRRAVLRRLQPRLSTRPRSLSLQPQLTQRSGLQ

[9] = target: Sodium-dependent dopamine transporter (Homo sapiens, UniProt Q01959)
[10] = target: Sodium-dependent noradrenaline transporter (Homo sapiens, UniProt P23975)
[11] = target: D(3) dopamine receptor (Homo sapiens, UniProt P35462)
[12] = target: T6, Equilibrative nucleoside transporter 1 (Homo sapiens, UniProt Q99808)
T6 sequence (Q99808 whole entry): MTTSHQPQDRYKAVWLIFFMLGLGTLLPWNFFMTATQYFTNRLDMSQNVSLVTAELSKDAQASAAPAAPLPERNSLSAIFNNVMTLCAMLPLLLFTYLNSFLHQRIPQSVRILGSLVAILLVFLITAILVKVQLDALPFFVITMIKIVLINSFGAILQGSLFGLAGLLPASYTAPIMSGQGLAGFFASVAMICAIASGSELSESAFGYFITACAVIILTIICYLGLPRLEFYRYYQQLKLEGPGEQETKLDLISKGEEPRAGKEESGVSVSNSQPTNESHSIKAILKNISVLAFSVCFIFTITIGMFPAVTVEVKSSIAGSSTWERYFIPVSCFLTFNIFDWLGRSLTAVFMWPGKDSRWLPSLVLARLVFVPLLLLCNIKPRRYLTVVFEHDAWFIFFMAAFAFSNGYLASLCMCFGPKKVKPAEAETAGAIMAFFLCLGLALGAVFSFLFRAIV
Also: assay procedure not described here.

Sequence of Histamine H2 receptor (P25021 whole entry): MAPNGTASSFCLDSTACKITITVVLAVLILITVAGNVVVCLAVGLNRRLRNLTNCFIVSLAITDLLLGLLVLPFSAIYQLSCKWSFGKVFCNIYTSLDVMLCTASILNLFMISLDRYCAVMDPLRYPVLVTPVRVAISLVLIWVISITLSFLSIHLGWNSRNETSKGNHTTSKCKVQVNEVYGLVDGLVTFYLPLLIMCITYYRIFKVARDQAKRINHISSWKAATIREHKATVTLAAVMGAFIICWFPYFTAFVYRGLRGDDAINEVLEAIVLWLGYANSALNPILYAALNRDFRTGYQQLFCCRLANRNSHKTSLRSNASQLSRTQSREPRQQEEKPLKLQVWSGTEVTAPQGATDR
Sequence of Sodium-dependent noradrenaline transporter (P23975 whole entry): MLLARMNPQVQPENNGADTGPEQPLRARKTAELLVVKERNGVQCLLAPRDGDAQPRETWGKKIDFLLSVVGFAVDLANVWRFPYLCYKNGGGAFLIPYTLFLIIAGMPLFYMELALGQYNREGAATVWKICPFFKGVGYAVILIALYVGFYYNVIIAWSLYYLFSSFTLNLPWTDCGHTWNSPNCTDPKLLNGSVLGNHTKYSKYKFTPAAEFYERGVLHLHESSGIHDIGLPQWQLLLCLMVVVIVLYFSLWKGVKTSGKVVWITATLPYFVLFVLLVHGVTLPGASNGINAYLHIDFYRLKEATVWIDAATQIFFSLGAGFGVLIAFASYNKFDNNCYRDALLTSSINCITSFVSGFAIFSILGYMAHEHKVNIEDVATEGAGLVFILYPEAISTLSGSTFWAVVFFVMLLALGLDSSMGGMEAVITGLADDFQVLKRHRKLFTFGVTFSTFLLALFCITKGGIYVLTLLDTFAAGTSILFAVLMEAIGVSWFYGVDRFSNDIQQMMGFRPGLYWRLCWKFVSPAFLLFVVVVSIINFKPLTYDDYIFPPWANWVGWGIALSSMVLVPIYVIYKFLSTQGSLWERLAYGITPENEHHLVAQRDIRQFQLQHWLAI
Sequence of Growth hormone secretagogue receptor type 1 (Q92847 whole entry): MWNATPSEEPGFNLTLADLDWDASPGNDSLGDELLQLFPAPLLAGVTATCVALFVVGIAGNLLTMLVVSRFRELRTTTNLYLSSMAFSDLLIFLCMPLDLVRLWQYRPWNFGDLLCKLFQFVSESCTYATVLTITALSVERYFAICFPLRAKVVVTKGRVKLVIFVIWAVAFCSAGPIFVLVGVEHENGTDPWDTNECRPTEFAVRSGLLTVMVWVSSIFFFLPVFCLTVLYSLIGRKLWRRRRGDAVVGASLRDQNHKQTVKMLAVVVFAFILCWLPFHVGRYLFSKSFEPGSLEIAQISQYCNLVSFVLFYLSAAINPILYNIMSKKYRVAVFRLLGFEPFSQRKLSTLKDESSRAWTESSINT
Sequence of D(3) dopamine receptor (P35462 whole entry): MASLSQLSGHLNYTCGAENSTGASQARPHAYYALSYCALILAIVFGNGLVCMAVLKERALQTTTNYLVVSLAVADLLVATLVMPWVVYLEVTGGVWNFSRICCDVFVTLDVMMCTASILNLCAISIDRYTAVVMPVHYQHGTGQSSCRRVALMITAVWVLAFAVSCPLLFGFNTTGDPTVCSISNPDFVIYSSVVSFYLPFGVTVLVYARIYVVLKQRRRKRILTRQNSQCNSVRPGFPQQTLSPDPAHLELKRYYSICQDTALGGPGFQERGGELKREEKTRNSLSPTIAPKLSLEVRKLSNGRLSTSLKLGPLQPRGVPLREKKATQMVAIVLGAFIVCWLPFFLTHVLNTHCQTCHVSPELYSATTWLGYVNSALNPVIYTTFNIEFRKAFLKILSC
Sequence of Vasopressin V2 receptor (P30518 whole entry): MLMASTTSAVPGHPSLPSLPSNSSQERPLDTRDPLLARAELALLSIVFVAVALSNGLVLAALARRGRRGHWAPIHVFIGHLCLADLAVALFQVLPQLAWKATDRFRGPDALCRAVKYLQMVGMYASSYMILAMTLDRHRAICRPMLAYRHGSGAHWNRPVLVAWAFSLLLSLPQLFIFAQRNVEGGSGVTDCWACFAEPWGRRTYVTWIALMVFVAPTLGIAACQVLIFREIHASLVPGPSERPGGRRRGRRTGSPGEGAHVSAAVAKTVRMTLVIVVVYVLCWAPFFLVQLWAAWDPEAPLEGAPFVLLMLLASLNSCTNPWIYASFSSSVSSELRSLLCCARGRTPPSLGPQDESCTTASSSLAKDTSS
Sequence of Sodium-dependent dopamine transporter (Q01959 whole entry): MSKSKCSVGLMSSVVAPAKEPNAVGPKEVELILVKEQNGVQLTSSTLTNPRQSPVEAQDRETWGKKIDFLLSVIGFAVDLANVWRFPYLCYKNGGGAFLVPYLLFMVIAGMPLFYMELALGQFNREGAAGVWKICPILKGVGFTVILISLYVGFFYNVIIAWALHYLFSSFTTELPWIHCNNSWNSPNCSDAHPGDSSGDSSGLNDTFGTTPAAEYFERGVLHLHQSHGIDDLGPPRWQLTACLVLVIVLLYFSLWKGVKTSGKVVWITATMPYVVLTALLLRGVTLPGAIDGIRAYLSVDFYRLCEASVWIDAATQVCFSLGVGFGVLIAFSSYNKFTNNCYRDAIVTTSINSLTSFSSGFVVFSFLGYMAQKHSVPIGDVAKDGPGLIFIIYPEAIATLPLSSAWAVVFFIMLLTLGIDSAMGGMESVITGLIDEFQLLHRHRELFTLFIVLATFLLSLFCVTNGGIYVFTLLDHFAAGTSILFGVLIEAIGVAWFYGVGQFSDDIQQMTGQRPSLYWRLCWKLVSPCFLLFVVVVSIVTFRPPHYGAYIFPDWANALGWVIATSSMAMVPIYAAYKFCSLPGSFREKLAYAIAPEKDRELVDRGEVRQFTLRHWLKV

CCC(C)C(CC)C(N)=O (stereo not given) [VALNOCTAMIDE]
AC50 [1]: > 30 µM
AC50 [2]: > 30 µM
AC50 [3]: > 30 µM
AC50 [4]: > 30 µM
AC50 [5]: > 30 µM
AC50 [6]: > 30 µM
AC50 [7]: > 30 µM
AC50 [8]: > 30 µM
AC50 [9]: > 30 µM
AC50 [10]: > 30 µM
AC50 [11]: > 30 µM

Cc1cnc(C(=O)NCCc2ccc(S(=O)(=O)NC(=O)NC3CCCCC3)cc2)cn1 [GLIPIZIDE]
AC50 [1]: > 30 µM
AC50 [2]: > 30 µM
AC50 [3]: > 10 µM
AC50 [4]: > 30 µM
AC50 [5]: > 30 µM
AC50 [6]: > 30 µM
AC50 [7]: > 10 µM
AC50 [12]: > 30 µM
AC50 [8]: > 30 µM

CCCN[C@H]1CCc2nc(N)sc2C1 [PRAMIPEXOLE]
AC50 [1]: > 30 µM
AC50 [2]: > 30 µM
AC50 [4]: > 30 µM
AC50 [5]: > 30 µM
AC50 [6]: > 30 µM
AC50 [7]: 0.73 µM
AC50 [12]: > 30 µM
AC50 [8]: > 30 µM
AC50 [9]: > 30 µM
AC50 [10]: > 30 µM

C[C@H](Cc1cc2c(c(C(N)=O)c1)N(CCCO)CC2)NCCOc1ccccc1OCC(F)(F)F [SILODOSIN]
AC50 [3]: > 30 µM

Cc1cc(C(C)(C)C)cc(C)c1CC1=NCCN1 [XYLOMETAZOLINE]
AC50 [1]: > 30 µM
AC50 [2]: > 30 µM
AC50 [3]: > 30 µM
AC50 [4]: > 30 µM
AC50 [5]: > 30 µM
AC50 [6]: > 30 µM
AC50 [7]: > 30 µM
AC50 [8]: > 30 µM
AC50 [9]: > 30 µM
AC50 [10]: > 30 µM
AC50 [11]: 3.87 µM

O=C(O)c1cn(C2CC2)c2cc(N3CCNCC3)c(F)cc2c1=O [CIPROFLOXACIN]
AC50 [1]: > 30 µM
AC50 [2]: > 30 µM
AC50 [4]: > 30 µM
AC50 [5]: > 30 µM
AC50 [6]: > 30 µM
AC50 [12]: > 30 µM
AC50 [8]: > 30 µM

C/N=C(\NC)NCc1ccccc1 [BETHANIDINE]
AC50 [1]: > 30 µM
AC50 [2]: > 30 µM
AC50 [3]: > 30 µM
AC50 [4]: > 30 µM
AC50 [5]: > 30 µM
AC50 [6]: > 30 µM
AC50 [7]: > 30 µM
AC50 [12]: > 30 µM
AC50 [9]: > 30 µM
AC50 [10]: > 30 µM
AC50 [11]: > 30 µM

CN1CCN(C2=Nc3ccccc3Oc3ccc(Cl)cc32)CC1 [LOXAPINE]
AC50 [1]: > 30 µM
AC50 [2]: > 30 µM
AC50 [4]: > 30 µM
AC50 [5]: > 30 µM
AC50 [6]: > 30 µM
AC50 [7]: > 10 µM
AC50 [12]: > 30 µM
AC50 [8]: > 30 µM
AC50 [9]: > 10 µM
AC50 [10]: 1.53 µM
AC50 [11]: 0.032 µM

COc1cc(N)c(Cl)cc1C(=O)NC1CCN(Cc2ccccc2)CC1 [CLEBOPRIDE]
AC50 [1]: > 30 µM
AC50 [2]: > 30 µM
AC50 [3]: > 30 µM
AC50 [4]: > 30 µM
AC50 [5]: > 30 µM
AC50 [6]: > 30 µM
AC50 [7]: > 30 µM
AC50 [12]: > 30 µM
AC50 [8]: > 30 µM
AC50 [9]: 22 µM
AC50 [10]: 15 µM

O=[N+]([O-])c1ccc(O)c2ncccc12 [NITROXOLINE]
AC50 [3]: > 30 µM
AC50 [7]: > 30 µM
AC50 [11]: 5.8 µM

CNCc1ccc(-c2[nH]c3cc(F)cc4c3c2CCNC4=O)cc1 [RUCAPARIB]
AC50 [1]: > 30 µM
AC50 [4]: > 30 µM
AC50 [5]: > 30 µM
AC50 [6]: > 30 µM
AC50 [12]: > 30 µM
AC50 [8]: > 30 µM
AC50 [9]: > 30 µM
AC50 [10]: 20.7 µM

Oc1ccc2c(c1)CC[C@H](c1ccccc1)[C@@H]2c1ccc(OCCN2CCCC2)cc1 [LASOFOXIFENE]
AC50 [1]: > 30 µM
AC50 [2]: 5.8 µM
AC50 [3]: 10 µM
AC50 [4]: 15 µM
AC50 [5]: > 3 µM
AC50 [6]: 5.2 µM
AC50 [7]: > 30 µM
AC50 [12]: > 30 µM
AC50 [9]: 0.117 µM
AC50 [10]: 2 µM
AC50 [11]: 2.2 µM

C[C@]12CC[C@@H]3c4ccc(O)cc4C[C@@H](CCCCCCCCC[S+]([O-])CCCC(F)(F)C(F)(F)F)[C@H]3[C@@H]1CC[C@@H]2O (stereo not given in full) [FULVESTRANT]
AC50 [1]: > 30 µM
AC50 [2]: > 30 µM
AC50 [3]: > 30 µM
AC50 [4]: > 30 µM
AC50 [5]: > 30 µM
AC50 [6]: > 30 µM
AC50 [7]: > 30 µM
AC50 [12]: > 30 µM
AC50 [9]: > 30 µM
AC50 [10]: > 30 µM
AC50 [11]: > 30 µM

CC(C)NCC(O)c1ccc(O)c(O)c1 (stereo not given) [ISOPROTERENOL]
AC50 [1]: > 30 µM
AC50 [2]: 20.3 µM
AC50 [4]: > 30 µM
AC50 [5]: > 30 µM
AC50 [6]: > 30 µM
AC50 [7]: > 10 µM
AC50 [12]: > 30 µM
AC50 [8]: > 30 µM
AC50 [9]: > 30 µM
AC50 [10]: > 30 µM
AC50 [11]: > 30 µM

CC[C@@H]([C@H](C)O)n1ncn(-c2ccc(N3CCN(c4ccc(OC[C@@H]5CO[C@@](Cn6cncn6)(c6ccc(F)cc6F)C5)cc4)CC3)cc2)c1=O [POSACONAZOLE]
AC50 [2]: > 30 µM
AC50 [9]: > 30 µM
AC50 [10]: > 30 µM
AC50 [11]: > 30 µM

CCC[C@H](NC(=O)[C@@H]1[C@H]2CCC[C@H]2CN1C(=O)[C@@H](NC(=O)[C@@H](NC(=O)c1cnccn1)C1CCCCC1)C(C)(C)C)C(=O)C(=O)NC1CC1
AC50 [1]: > 30 µM
AC50 [2]: > 30 µM
AC50 [4]: > 30 µM
AC50 [5]: > 30 µM
AC50 [6]: > 30 µM
AC50 [12]: > 30 µM
AC50 [8]: > 30 µM
AC50 [9]: > 10 µM
AC50 [10]: > 10 µM
AC50 [11]: > 30 µM

CN(C)CCCNc1c2ccccc2nc2cccc([N+](=O)[O-])c12 [NITRACRINE]
AC50 [1]: > 30 µM
AC50 [2]: > 30 µM
AC50 [3]: > 30 µM
AC50 [4]: > 30 µM
AC50 [5]: > 30 µM
AC50 [6]: > 30 µM
AC50 [8]: > 30 µM
AC50 [9]: > 30 µM
AC50 [10]: > 30 µM
AC50 [11]: 9.8 µM

CCC(C)C1(CC)C(=O)NC(=O)NC1=O (stereo not given) [BUTABARBITAL]
AC50 [1]: > 30 µM
AC50 [2]: > 30 µM
AC50 [3]: > 30 µM
AC50 [4]: > 30 µM
AC50 [5]: > 30 µM
AC50 [6]: > 30 µM
AC50 [7]: > 30 µM
AC50 [12]: > 30 µM
AC50 [9]: > 30 µM
AC50 [10]: > 30 µM

Cc1cccc(N2CC(CO)OC2=O)c1 (stereo not given) [TOLOXATONE]
AC50 [1]: > 30 µM
AC50 [2]: > 30 µM
AC50 [3]: > 30 µM
AC50 [4]: > 30 µM
AC50 [5]: > 30 µM
AC50 [6]: > 30 µM
AC50 [7]: > 30 µM
AC50 [8]: > 30 µM
AC50 [9]: > 30 µM
AC50 [11]: > 30 µM
